Experimental data: paper PMC7756392, “Syntheses of Thailandepsin B Pseudo‐Natural Products: Access to New Highly Potent HDAC Inhibitors via Late‐Stage Modification” (Chemistry (Weinheim an Der Bergstrasse, Germany), 2020)

Columns and labels:
human recombinant HDAC1 = target: T1, human recombinant HDAC1 (Homo sapiens, UniProt Q13547); test: ZMAL trypsin assay, HDAC1; assay type: biochemical; conditions: for inhibition at 10 µM: ZMAL trypsin assay
T1 construct: purchased BPS Bioscience 50051
Experimental: (§1) [28] Assays for HDAC1/6 were prepared according to: B. Heltweg , J. Trapp , M. Jung , Methods 2005, 36, 332–337; assays for HDAC8 were prepared according to: J. Senger , J. Melesina , M. Marek , C. Romier , I. Oehme , O. Witt , W. Sippl , M. Jung , J. Med. Chem. 2016, 59, 1545–1555. […]
(§2) hHDAC1/6: Activity assays were performed in OptiPlateTM-96 F black microplates (PerkinElmer). Commercial available enzymes (human recombinant HDAC1; BPS Bioscience, catalog no. 50051 and human recombinant HDAC6; BPS Bioscience, catalog no. 50006) were used. Total assay volume of 60 µL contains 42 µl of assay buffer (50 mM Tris -HCl, pH 8.0, 137 mM NaCl, 2.7 mM KCl, 1 mM MgCl2, 0.2 mM TCEP and 1 mg/mL bovine serum albumin), 10 µL of enzyme solution in assay buffer, 3 µL of increasing concentrations of inhibitors in DMSO and 5 μL of the fluorogenic substrate ZMAL (Z -(Ac)Lys-AMC) (126 μM). After incubation (90 min, 37 °C) 60 µL of stop solution, containing 5 μL Trichostatin A (TSA) (33 μM) and 10 μL trypsin (6 mg/mL) in trypsin buffer (Tris-HCl 50 mM, pH 8.0, NaCl 100 mM), were added. […]

human recombinant HDAC6 = target: T2, human recombinant HDAC6 (Homo sapiens, UniProt Q9UBN7); test: ZMAL trypsin assay, HDAC6; assay type: biochemical; conditions: for inhibition at 10 µM: ZMAL trypsin assay
T2 construct: purchased BPS Bioscience 50006
T2 sequence (Q9UBN7 1-1215): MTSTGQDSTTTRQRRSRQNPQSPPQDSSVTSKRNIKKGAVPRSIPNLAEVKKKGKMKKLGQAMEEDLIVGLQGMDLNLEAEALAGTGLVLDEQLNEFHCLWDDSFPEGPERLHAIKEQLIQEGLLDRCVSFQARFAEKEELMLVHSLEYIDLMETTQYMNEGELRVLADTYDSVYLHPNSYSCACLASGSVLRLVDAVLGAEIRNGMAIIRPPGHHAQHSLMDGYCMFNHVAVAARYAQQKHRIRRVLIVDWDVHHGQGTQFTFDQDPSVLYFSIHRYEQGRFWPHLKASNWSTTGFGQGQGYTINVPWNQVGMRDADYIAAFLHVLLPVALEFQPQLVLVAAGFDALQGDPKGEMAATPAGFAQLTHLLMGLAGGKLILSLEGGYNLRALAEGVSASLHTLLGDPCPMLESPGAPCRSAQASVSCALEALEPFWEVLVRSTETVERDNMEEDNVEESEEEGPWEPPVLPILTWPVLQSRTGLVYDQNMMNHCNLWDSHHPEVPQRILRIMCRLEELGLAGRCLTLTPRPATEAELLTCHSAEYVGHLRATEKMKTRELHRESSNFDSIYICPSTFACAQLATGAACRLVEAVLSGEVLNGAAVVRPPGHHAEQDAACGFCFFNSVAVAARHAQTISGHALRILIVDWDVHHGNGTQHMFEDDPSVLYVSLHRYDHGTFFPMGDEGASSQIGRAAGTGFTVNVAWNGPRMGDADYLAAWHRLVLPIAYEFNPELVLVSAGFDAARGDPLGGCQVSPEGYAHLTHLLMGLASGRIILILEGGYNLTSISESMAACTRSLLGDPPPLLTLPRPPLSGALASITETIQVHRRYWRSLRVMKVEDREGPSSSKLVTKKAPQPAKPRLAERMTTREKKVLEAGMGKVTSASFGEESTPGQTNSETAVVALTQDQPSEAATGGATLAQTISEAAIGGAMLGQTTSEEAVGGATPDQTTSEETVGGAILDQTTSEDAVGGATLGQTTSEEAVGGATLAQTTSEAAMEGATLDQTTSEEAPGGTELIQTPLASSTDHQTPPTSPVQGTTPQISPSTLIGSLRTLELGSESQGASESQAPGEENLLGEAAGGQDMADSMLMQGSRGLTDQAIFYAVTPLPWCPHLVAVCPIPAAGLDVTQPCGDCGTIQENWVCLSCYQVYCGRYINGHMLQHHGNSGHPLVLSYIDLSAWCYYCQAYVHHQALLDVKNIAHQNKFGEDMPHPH
Experimental: as §1, §2

T1 sequence (Q13547 whole entry): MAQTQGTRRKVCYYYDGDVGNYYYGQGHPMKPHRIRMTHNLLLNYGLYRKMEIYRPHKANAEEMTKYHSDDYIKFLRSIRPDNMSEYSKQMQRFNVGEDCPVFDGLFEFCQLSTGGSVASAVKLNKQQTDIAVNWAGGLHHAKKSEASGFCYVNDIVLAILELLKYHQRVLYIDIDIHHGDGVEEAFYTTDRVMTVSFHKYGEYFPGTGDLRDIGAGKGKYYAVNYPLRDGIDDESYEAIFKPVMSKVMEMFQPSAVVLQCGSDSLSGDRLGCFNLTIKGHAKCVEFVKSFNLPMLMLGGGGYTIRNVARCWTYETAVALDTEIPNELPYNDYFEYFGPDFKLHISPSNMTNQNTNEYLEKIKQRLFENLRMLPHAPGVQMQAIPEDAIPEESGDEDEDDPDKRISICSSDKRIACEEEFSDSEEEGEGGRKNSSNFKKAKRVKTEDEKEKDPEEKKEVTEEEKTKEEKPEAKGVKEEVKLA

Structure (SMILES) | HDAC1 inhibition (in words) (human recombinant HDAC1) | inhibition at 10 µM (human recombinant HDAC1) | HDAC6 inhibition (in words) (human recombinant HDAC6) | inhibition at 10 µM (human recombinant HDAC6)
CCCC[C@H]1NC(=O)C[C@@H](/C=C/CCC(=O)N(OC(=O)OC(C)(C)C)C(=O)OC(C)(C)C)OC(=O)C[C@H](O[Si](C)(C)C(C)(C)C)[C@@H]([C@@H](C)CC)NC(=O)[C@@H](C)NC1=O [compound 35] | not active | < 5% | not active | < 5%
C=C[C@@H]1CC(=O)N[C@H](CCCC)C(=O)N[C@H](C)C(=O)N[C@H]([C@@H](C)CC)[C@@H](O[Si](C)(C)C(C)(C)C)CC(=O)O1 [compound 9] | did not show inhibition | < 5% | did not show inhibition | < 5%
C=C[C@@H]1CC(=O)N[C@H](CCCC)C(=O)N[C@H](C)C(=O)N[C@H]([C@@H](C)CC)[C@@H](O)CC(=O)O1 [compound 28] | did not show inhibition | < 5% | did not show inhibition | < 5%
